In PubChem BioAssay (NCI):
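Tested at 5 concentrations; 48 h exposure; 96-well plates; endpoints linearly interpolated, else capped at highest concentration. TGI denotes the concentration required for complete inhibition of growth.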

Columns and labels:
Assay in all cases: growth of human tumour cells (NCI), 48 h
[1] = tested on: MCF7 breast
[2] = tested on: UACC-257 melanoma
[3] = tested on: EKVX NSCLC
[4] = tested on: MDA-MB-231 breast
[5] = tested on: HT29 colon
[6] = tested on: MALME-3M melanoma
[7] = tested on: OVCAR-3 ovarian
[8] = tested on: HOP-92 NSCLC
[9] = tested on: NCI-H460 lung
[10] = tested on: SNB-19 CNS
[11] = tested on: NCI-H522 lung
[12] = tested on: A498 renal
[13] = tested on: MOLT-4 leukemia
[14] = tested on: OVCAR-8 ovarian
[15] = tested on: NCI-H226 lung
[16] = tested on: HS 578T breast
[17] = tested on: HCC-2998 colon
[18] = tested on: OVCAR-4 ovarian
[19] = tested on: 786-0 renal
[20] = tested on: OVCAR-5 ovarian
[21] = tested on: NCI/ADR-RES ovarian
[22] = tested on: UO-31 renal
[23] = tested on: SK-OV-3 ovarian
[24] = tested on: HCT-116 colon
[25] = tested on: SN12C renal
[26] = tested on: TK-10 renal
[27] = tested on: IGROV1 ovarian
[28] = tested on: NCI-H23 lung
[29] = tested on: PC-3 prostate
[30] = tested on: ACHN renal
[31] = tested on: KM12 colon
[32] = tested on: U251 CNS
[33] = tested on: SF-295 CNS
[34] = tested on: UACC-62 melanoma
[35] = tested on: MDA-MB-435
[36] = tested on: SR leukemia
[37] = tested on: A549 NSCLC
[38] = tested on: RXF 393 renal
[39] = tested on: MDA-N
[40] = tested on: HCT-15 colon
[41] = tested on: SK-MEL-28 melanoma
[42] = tested on: SK-MEL-5 melanoma
[43] = tested on: BT-549 breast
[44] = tested on: M14 melanoma
[45] = tested on: K-562 leukemia
[46] = tested on: SNB-75 CNS
[47] = tested on: CCRF-CEM leukemia
[48] = tested on: SK-MEL-2 melanoma
[49] = tested on: CAKI-1 renal
[50] = tested on: DU-145 prostate
[51] = tested on: SF-268 CNS
[52] = tested on: T-47D breast
[53] = tested on: RPMI-8226 leukemia
[54] = tested on: HL-60(TB) leukemia
[55] = tested on: COLO 205 colon
[56] = tested on: HOP-62 NSCLC
[57] = tested on: SF-539 CNS
[58] = tested on: LOX IMVI melanoma
[59] = tested on: SW-620 colon
[60] = tested on: DLD-1 colon
[61] = tested on: XF 498 CNS
[62] = tested on: DMS 273 small cell lung
[63] = tested on: HOP-18 NSCLC
[64] = tested on: RXF-631 renal
[65] = tested on: M19-MEL melanoma
[66] = tested on: SNB-78 CNS
[67] = tested on: KM20L2 colon
[68] = tested on: DMS 114 small cell lung

`O=c1[nH]nc(Cc2ccc(Cl)cc2)n1/N=C\CC/C=N\n1c(Cc2ccc(Cl)cc2)n[nH]c1=O` was tested, and the TGI [1] was over 100 µM, the TGI [2] was over 100 µM and the TGI [3] was 78.5 µM. For the same compound, the TGI [4] was over 58.4 µM, the TGI [5] was over 100 µM and the TGI [6] was over 84.7 µM. It also gave a TGI [7] of over 100 µM, a TGI [8] of over 100 µM and a TGI [9] of over 100 µM. The TGI [10] was over 92.8 µM, the TGI [11] was over 100 µM and the TGI [12] was over 100 µM. For the same compound, the TGI [13] was over 96.5 µM, the TGI [14] was 37 µM and the TGI [15] was over 71 µM. For the same compound, the TGI [16] was 36.5 µM, the TGI [17] was over 100 µM and the TGI [18] was over 100 µM. For the same compound, the TGI [19] was over 53.5 µM, the TGI [20] was over 100 µM and the TGI [21] was over 66.3 µM. It also gave a TGI [22] of over 100 µM, a TGI [23] of over 100 µM and a TGI [24] of over 100 µM. For the same compound, the TGI [25] was over 100 µM, the TGI [26] was over 100 µM and the TGI [27] was 41.3 µM. The TGI [28] was over 100 µM, the TGI [29] was over 100 µM and the TGI [30] was over 100 µM. For the same compound, the TGI [31] was over 100 µM, the TGI [32] was 46 µM and the TGI [33] was over 78.1 µM. It also gave a TGI [34] of 45.7 µM, a TGI [35] of over 100 µM and a TGI [36] of 14.8 µM. It also gave a TGI [37] of over 100 µM, a TGI [38] of 76.1 µM and a TGI [39] of over 100 µM. For the same compound, the TGI [40] was over 100 µM, the TGI [41] was 96.9 µM and the TGI [42] was over 100 µM. The TGI [43] was over 83.2 µM, the TGI [44] was over 100 µM and the TGI [45] was over 100 µM. For the same compound, the TGI [46] was 23.1 µM, the TGI [47] was over 88.9 µM and the TGI [48] was over 69.7 µM. The TGI [49] was over 100 µM, the TGI [50] was over 100 µM and the TGI [51] was 37.9 µM. The TGI [52] was over 100 µM, the TGI [53] was over 100 µM and the TGI [54] was over 100 µM. For the same compound, the TGI [55] was over 100 µM, the TGI [56] was 27.5 µM and the TGI [57] was 40.6 µM. It also gave a TGI [58] of over 100 µM and a TGI [59] of over 100 µM.

`Cc1ccccc1CN1CC=c2ccccc2=N1` gave a TGI [60] of over 100 µM, a TGI [2] of over 100 µM and a TGI [3] of over 100 µM. For the same compound, the TGI [5] was over 100 µM, the TGI [6] was over 100 µM and the TGI [7] was over 100 µM. It also gave a TGI [8] of over 100 µM, a TGI [9] of over 100 µM and a TGI [10] of over 100 µM. The TGI [12] was over 100 µM, the TGI [14] was over 100 µM and the TGI [61] was over 100 µM. For the same compound, the TGI [15] was over 100 µM, the TGI [17] was over 100 µM and the TGI [18] was over 100 µM. For the same compound, the TGI [62] was over 100 µM, the TGI [19] was over 100 µM and the TGI [20] was over 100 µM. For the same compound, the TGI [22] was over 100 µM, the TGI [23] was over 100 µM and the TGI [63] was over 100 µM. The TGI [25] was over 100 µM, the TGI [26] was over 100 µM and the TGI [27] was over 100 µM. It also gave a TGI [28] of over 100 µM, a TGI [30] of over 100 µM and a TGI [31] of over 100 µM. For the same compound, the TGI [32] was over 100 µM, the TGI [33] was over 100 µM and the TGI [34] was over 100 µM. For the same compound, the TGI [64] was over 100 µM, the TGI [65] was over 100 µM and the TGI [66] was over 100 µM. The TGI [37] was over 100 µM, the TGI [40] was over 100 µM and the TGI [41] was over 100 µM. It also gave a TGI [42] of over 100 µM, a TGI [44] of over 100 µM and a TGI [45] of over 100 µM. The TGI [46] was over 100 µM, the TGI [47] was over 100 µM and the TGI [48] was over 100 µM. The TGI [49] was over 100 µM, the TGI [51] was over 100 µM and the TGI [67] was over 100 µM. For the same compound, the TGI [53] was over 100 µM, the TGI [68] was over 100 µM and the TGI [55] was over 100 µM. It also gave a TGI [56] of over 100 µM, a TGI [57] of over 100 µM and a TGI [58] of over 100 µM. For the same compound, the TGI [59] was over 100 µM.

`c1ccc2c(c1)Nc1nc3nonc3nc1N2` was tested, and the TGI [1] was over 100 µM, the TGI [2] was over 100 µM and the TGI [3] was over 100 µM. It also gave a TGI [4] of over 100 µM, a TGI [5] of over 100 µM and a TGI [6] of over 100 µM. For the same compound, the TGI [8] was over 100 µM, the TGI [9] was over 100 µM and the TGI [10] was over 100 µM. The TGI [11] was over 100 µM, the TGI [12] was over 100 µM and the TGI [13] was over 100 µM. The TGI [14] was over 100 µM, the TGI [15] was over 100 µM and the TGI [16] was over 100 µM. It also gave a TGI [17] of over 100 µM, a TGI [18] of over 100 µM and a TGI [19] of over 100 µM. For the same compound, the TGI [20] was over 100 µM, the TGI [21] was over 100 µM and the TGI [22] was over 100 µM. The TGI [23] was over 100 µM, the TGI [24] was over 100 µM and the TGI [25] was over 100 µM. It also gave a TGI [26] of over 100 µM, a TGI [27] of over 100 µM and a TGI [28] of over 100 µM. The TGI [29] was over 100 µM, the TGI [30] was over 100 µM and the TGI [31] was over 100 µM. It also gave a TGI [32] of over 100 µM, a TGI [33] of over 100 µM and a TGI [34] of over 100 µM. For the same compound, the TGI [35] was over 100 µM, the TGI [36] was over 100 µM and the TGI [37] was over 100 µM. It also gave a TGI [38] of over 100 µM, a TGI [39] of over 100 µM and a TGI [40] of over 100 µM. The TGI [41] was over 100 µM, the TGI [42] was over 100 µM and the TGI [43] was over 100 µM. It also gave a TGI [44] of over 100 µM, a TGI [45] of over 100 µM and a TGI [47] of over 100 µM. For the same compound, the TGI [48] was over 100 µM, the TGI [49] was over 100 µM and the TGI [50] was over 100 µM. For the same compound, the TGI [51] was over 100 µM, the TGI [52] was over 100 µM and the TGI [53] was over 100 µM. It also gave a TGI [54] of over 100 µM, a TGI [55] of over 100 µM and a TGI [56] of over 100 µM. The TGI [58] was over 100 µM and the TGI [59] was over 100 µM.
